Results reported in US7511144B2, “Reverse hydroxamic acid derivatives” (Kaken Pharmaceutical Co., Ltd., priority 2001, dated 2009).
Where two headings read alike, the source gives them in different places.

How the values were obtained:
Type in all cases: biochemical
Human MMP13 = molecular target: T1, Human MMP13 (Homo sapiens, UniProt P45452); assay: MMP13 inhibition experiment
T1 construct: purchased Chemicon CC068
Experimental: Human MMP13 (Chemicon #CC068) in amount of 90 μL (200 ng) was activated by mixing with 10 μL of 10 mM APMA, followed by reaction for 1 hour at 37° C. This enzyme solution in amount of 0.6 μL was diluted to 90 μL with the assay buffer A, which was added to 90 μL of 20 μM fluorescent substrate (Dnp-Pro-Cha-Gly-Cys(Me)-His-Ala-Lys(Nma)-NH2) prepared in the assay buffer B, followed by reaction for 4 hours at 37° C.

Human MMP1 = molecular target: T2, Human MMP1 (Homo sapiens, UniProt P03956); assay: MMP1 inhibition experiment; conditions: read-out: IC50 value MMP-1
T2 construct: purchased Calbiochem 444208
T2 sequence (P03956 100-469): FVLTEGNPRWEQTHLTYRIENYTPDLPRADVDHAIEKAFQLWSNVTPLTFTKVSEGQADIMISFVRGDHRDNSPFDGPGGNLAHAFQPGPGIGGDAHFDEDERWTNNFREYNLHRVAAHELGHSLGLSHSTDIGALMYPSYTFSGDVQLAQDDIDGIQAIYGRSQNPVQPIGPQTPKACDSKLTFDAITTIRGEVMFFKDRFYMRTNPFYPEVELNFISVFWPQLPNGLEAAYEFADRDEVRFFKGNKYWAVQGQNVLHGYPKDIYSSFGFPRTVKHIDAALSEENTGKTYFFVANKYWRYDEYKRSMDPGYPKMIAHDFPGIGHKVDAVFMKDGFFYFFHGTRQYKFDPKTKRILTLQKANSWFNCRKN
Experimental: This enzyme solution in amount of 10 μL was diluted to 90 μL with the assay buffer A, which was added to 90 μL of 20 μM fluorescent substrate (Dnp-Pro-Cha(β-cyclohexylalanyl)-Gly-Cys(Me)-His-Ala-Lys(Nma)-NH2) prepared in the assay buffer B, followed by reaction for 5 hours at 37° C.

Human MMP3 = molecular target: T3, Human MMP3 (Homo sapiens, UniProt P08254); assay: MMP3 inhibition experiment; conditions: concentration required for 50% inhibition of enzyme activity; read-out: IC50 value MMP-3
T3 construct: purchased Calbiochem 444217
Experimental: (§1) MMP inhibition experiment may be carried out using a fluorescent synthetic substrate according to, for example, the methods of Bickett et al. (D. Mark Bickett et al., Anal. Biochem., 1993, 212, 58-64) and Nagase et al. (H. Nagase et al., J. Biol. Chem., 1994, 269, 20952-20957). The methods of inhibition experiments carried out for various MMPs are described below.
Human MMP3 (Calbiochem #444217) in 90 μL (5 ng) prepared in the assay buffer A was added to 90 μL of 20 μM fluorescent substrate NFF-3(MOCAc-Arg-Pro-Lys-Pro-Val-Glu-Nva-Trp-Arg-Lys(Dnp)-NH2, Peptide Institute, Inc., #3168-v) prepared in the assay buffer B, followed by reaction for 5 hours at 37° C.

Human MMP17 = molecular target: T4, Human MMP17 (Homo sapiens, UniProt Q9ULZ9); assay: MMP17 inhibition test; conditions: concentration required for 50% inhibition of enzyme activity; read-out: IC50 value MMP-17
T4 construct: purchased Calbiochem 475940
T4 sequence (Q9ULZ9 126-300 limits assumed): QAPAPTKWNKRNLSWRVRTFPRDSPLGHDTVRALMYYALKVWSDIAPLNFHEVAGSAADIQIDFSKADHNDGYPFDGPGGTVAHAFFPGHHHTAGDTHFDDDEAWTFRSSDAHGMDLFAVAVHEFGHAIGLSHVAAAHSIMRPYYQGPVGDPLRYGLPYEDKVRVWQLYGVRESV

Human MMP9 = molecular target: T5, Human MMP9 (Homo sapiens, UniProt P14780); assay: MMP9 inhibition experiment; conditions: read-out: IC50 value MMP-9
T5 construct: purchased Calbiochem 444231
Experimental: This enzyme solution in amount of 1 μL was diluted to 90 μL with the assay buffer A, which was added to 90 μL of 20 μM fluorescent substrate (Dnp-Pro-Cha-Gly-Cys(Me)-His-Ala-Lys(Nma)-NH2) prepared in the assay buffer B, followed by reaction for 4 hours at 37° C.

Human MMP2 = molecular target: T6, Human MMP2 (Homo sapiens, UniProt P08253); assay: MMP2 inhibition experiment; conditions: concentration required for 50% inhibition of enzyme activity; read-out: IC50 value MMP-2
T6 construct: purchased Calbiochem 444213
T6 sequence (P08253 110-660): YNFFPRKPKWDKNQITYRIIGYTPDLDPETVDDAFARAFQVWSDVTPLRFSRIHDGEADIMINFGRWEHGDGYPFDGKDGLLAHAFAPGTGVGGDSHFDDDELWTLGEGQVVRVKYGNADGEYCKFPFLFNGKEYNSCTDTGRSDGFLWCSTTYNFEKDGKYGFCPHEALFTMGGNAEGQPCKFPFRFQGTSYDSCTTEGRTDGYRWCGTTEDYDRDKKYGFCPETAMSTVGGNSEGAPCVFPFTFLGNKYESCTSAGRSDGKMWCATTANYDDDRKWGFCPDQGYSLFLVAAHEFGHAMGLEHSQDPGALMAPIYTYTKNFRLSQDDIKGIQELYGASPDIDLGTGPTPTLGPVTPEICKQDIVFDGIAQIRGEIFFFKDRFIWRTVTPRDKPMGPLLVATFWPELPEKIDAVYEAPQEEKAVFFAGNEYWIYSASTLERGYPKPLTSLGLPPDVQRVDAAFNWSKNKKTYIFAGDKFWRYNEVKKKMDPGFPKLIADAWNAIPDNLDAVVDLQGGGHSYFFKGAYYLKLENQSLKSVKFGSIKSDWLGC
Experimental: This enzyme solution in amount of 10 μL was diluted to 90 μL with the assay buffer A, which was added to 90 μL of 20 μM fluorescent substrate (MOCAc((7-methoxycoumarin-4-yl)acetyl)-Pro-Leu-Gly-Leu-A2pr(Dnp)-Ala-Arg-NH2, Peptide Institute, Inc., #3163-v) prepared in the assay buffer B, followed by reaction for 5 hours at 37° C.

TACE = molecular target: T7, TACE (Homo sapiens, UniProt P78536); assay: TACE inhibition experiment (in vitro)
T7 construct: made in house; host or cells: mammalian cells or insect cells

Human MMP14 = molecular target: T8, Human MMP14 (Homo sapiens, UniProt P50281); assay: MMP14 inhibition experiment; conditions: concentration required for 50% inhibition of enzyme activity; read-out: IC50 value MMP-14
T8 construct: purchased Biogenesis or Calbiochem 5980-1461 or 475935
Experimental: as §1
Human MMP14 (Biogenesis #5980-1461 or Calbiochem #475935) in amount of 90 μL (4 ng) prepared in the assay buffer A was added to 90 μL of 20 μM fluorescent substrate (Dnp-Pro-Cha-Gly-Cys(Me)-His-Ala-Lys(Nma)-NH2) prepared in the assay buffer B, followed by reaction for 5 hours at 37° C.

[1] = concentration required for 50% inhibition of enzyme activity, read-out: IC50 value MMP-13
[2] = concentration required for 50% inhibition of enzyme activity

T7 sequence (P78536 215-824): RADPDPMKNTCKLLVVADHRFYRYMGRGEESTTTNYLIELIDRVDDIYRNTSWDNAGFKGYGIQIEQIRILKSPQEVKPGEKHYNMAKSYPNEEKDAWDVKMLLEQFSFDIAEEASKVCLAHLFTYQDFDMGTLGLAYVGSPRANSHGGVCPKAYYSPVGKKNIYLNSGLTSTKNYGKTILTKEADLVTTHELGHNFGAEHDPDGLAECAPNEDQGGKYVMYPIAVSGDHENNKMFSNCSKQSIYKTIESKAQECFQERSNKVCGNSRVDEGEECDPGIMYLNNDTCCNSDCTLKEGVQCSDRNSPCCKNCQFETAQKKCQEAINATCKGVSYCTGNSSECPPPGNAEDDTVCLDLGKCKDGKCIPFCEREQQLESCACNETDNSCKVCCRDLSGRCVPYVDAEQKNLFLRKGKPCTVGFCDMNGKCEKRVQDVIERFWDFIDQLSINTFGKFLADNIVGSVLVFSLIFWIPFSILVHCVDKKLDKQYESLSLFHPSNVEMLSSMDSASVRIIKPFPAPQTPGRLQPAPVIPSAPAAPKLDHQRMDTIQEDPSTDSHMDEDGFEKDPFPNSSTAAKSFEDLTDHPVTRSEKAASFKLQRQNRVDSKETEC
T5 sequence (P14780 107-707 limits assumed): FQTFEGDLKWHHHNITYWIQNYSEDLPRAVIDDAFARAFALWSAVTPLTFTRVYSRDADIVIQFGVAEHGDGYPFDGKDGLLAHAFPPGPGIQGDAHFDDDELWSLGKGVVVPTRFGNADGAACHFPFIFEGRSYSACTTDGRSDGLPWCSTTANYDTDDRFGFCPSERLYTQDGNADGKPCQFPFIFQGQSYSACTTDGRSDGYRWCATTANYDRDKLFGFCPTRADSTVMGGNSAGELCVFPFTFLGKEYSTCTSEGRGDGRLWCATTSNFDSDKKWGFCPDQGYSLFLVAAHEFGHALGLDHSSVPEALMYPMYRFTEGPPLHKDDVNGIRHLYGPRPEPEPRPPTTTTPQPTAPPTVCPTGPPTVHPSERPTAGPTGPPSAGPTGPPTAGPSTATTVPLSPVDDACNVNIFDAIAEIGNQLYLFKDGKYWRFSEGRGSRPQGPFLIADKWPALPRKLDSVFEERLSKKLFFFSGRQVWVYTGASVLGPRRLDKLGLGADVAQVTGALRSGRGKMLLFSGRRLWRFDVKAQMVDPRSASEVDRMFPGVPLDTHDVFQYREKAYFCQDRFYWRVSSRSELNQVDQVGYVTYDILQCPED
T3 sequence (P08254 100-272 limits assumed): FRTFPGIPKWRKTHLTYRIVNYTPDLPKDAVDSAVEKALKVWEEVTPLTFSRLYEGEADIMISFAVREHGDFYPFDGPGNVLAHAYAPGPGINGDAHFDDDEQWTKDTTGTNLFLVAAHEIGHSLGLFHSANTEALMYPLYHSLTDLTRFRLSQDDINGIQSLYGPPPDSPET

SMILES	IC50 (Human MMP13; [1]) [µM]	IC50 (Human MMP1) [µM]	IC50 (Human MMP3) [µM]	IC50 (Human MMP17) [µM]	IC50 (Human MMP9) [µM]	IC50 (Human MMP2) [µM]	IC50 (TACE) [µM]	IC50 (Human MMP14) [µM]	IC50 (Human MMP1; [2]) [µM]	IC50 (Human MMP9; [2]) [µM]	IC50 (TACE; [2]) [µM]	IC50 (Human MMP13; IC50 value MMP-13, concentration required for 50% inhibition of enzyme activity) [µM]
Cc1cc(Cl)cc(COc2ccc(S(=O)(=O)CC(C=C3CCC(=NO)CC3)N(O)C=O)cc2)c1 (stereo not drawn) [Example I-102]	16	80	25	30	40	20	0.13	33	–	–	–	–
Cc1cc(C)cc(COc2ccc(S(=O)(=O)CC(C=C3CCC(=O)CC3)N(O)C=O)cc2)c1 (stereo not drawn) [Example I-92]	35	> 100	60	40	60	43	0.3	> 100	–	–	–	–
Cc1cc(Cl)cc(COc2ccc(S(=O)(=O)CC(C3CCC4(CC3)OCCO4)N(O)C=O)cc2)c1 (stereo not drawn) [Example I-98]	2	50	1.2	1.6	20	2	0.08	7	–	–	–	–
COc1cc(C)cc(COc2ccc(S(=O)(=O)CC(C=C3CCC(=O)CC3)N(O)C=O)cc2)c1 (stereo not drawn) [Example I-94]	20	90	21	22	40	23	0.08	40	–	–	–	–
CON=C1CCC(C(CS(=O)(=O)c2ccc(OCc3cc(C)nc4ccccc34)cc2)N(O)C=O)CC1 (stereo not drawn) [Example I-12]	10	45	3	2	28	30	0.07	35	–	–	–	–
Cc1cc(COc2ccc(S(=O)(=O)CC(C=C3CCSCC3)N(O)C(N)=O)cc2)c2ccccc2n1 (stereo not drawn) [Example I-125, 1-hydroxy-1-{2-[4-(2-methylquinolin-4-ylmethoxy)benzenesulfonyl]-1-(tetrahydrothiopyran-4-ylidenemethyl)ethyl}urea]	> 100	> 100	> 100	> 100	> 100	> 100	0.63	> 100	–	–	–	–
C=C1CCC(C(CS(=O)(=O)c2ccc(OCc3cc(C)nc(C)c3)cc2)N(O)C=O)CC1 (stereo not drawn) [Example I-4, N-[2-{4-(2,6-dimethylpyridin-4-ylmethoxy)benzenesulfonyl}-1-(4-methylenecyclohexyl)ethyl]-N-hydroxyformamide]	2.5	> 100	5	2	40	–	0.06	43	–	–	–	–
CC(=O)N(O)C(C=C1CCSCC1)CS(=O)(=O)c1ccc(OCc2cc(C)nc3ccccc23)cc1 (stereo not drawn) [Example I-126, N-hydroxy-N-{2-[4-(2-methylquinolin-4-ylmethoxy)benzenesulfonyl]-1-(tetrahydrothipyran-4-ylidenemethyl)ethyl}acetamide]	70	> 100	12	6.3	> 100	> 100	0.31	> 100	–	–	–	–
Cc1cc(COc2ccc(S(=O)(=O)CC(CN3CCN(CC(C)C)CC3)N(O)C=O)cc2)c2ccccc2n1 (stereo not drawn) [Example I-46]	42	> 100	4.4	0.65	> 100	20	0.022	> 100	–	–	–	–
Cc1cc(COc2ccc(S(=O)(=O)CC(C3CCC(=NOC=O)CC3)N(O)C=O)cc2)c2ccccc2n1 (stereo not drawn) [Example I-13]	10	60	3	0.7	28	40	0.021	40	–	–	–	–
Cc1cc(COc2ccc(S(=O)(=O)CC(C(F)=C3CCOCC3)N(O)C=O)cc2)c2ccccc2n1 (stereo not drawn) [Example I-16]	40	> 100	10	5.5	> 100	40	0.007	> 100	–	–	–	–
Cc1ccc2nc(C)cc(COc3ccc(S(=O)(=O)CC(CC4CCC(=NO)CC4)N(O)C=O)cc3)c2c1 (stereo not drawn) [Example I-76]	6	40	0.8	1.6	40	10	0.005	31	–	–	–	–
Cc1cc(Cl)cc(COc2ccc(S(=O)(=O)CC(CC3CCC4(CC3)OCCO4)N(O)C=O)cc2)c1 (stereo not drawn) [Example I-99]	18	40	6	13	20	5	1.1	25	–	–	–	–
Cc1cc(COc2ccc(S(=O)(=O)CC(C=C3CCC(=O)CC3)N(O)C=O)cc2)cc(C)n1 (stereo not drawn) [Example I-114]	10	> 100	23	30	> 100	7	0.1	> 100	–	–	–	–
Cc1cc(COc2ccc(S(=O)(=O)N3CCSC(C)(C)[C@@H]3C(=O)NO)cc2)cc(C)n1 [compound 1, reference compound]	0.2	–	0.08	0.02	–	–	–	8	20	10	0.01	–
COc1cc(C)cc(COc2ccc(S(=O)(=O)CC(C3CCC4(CC3)OCCO4)N(O)C=O)cc2)c1 (stereo not drawn) [Example I-8, N-[1-(1,4-Dioxaspiro[4.5]dec-8-yl)-2-{4-(3-methoxy-5-methylbenzyloxy)benzenesulfonyl}ethyl]-N-hydroxyformamide]	2.2	> 100	2	2	35	–	0.08	40	–	–	–	–
CC[C@H](C)[C@H](NC(=O)[C@H](CC(C)C)[C@H](C(C)C)N(O)C=O)C(=O)Nc1ccccn1 [compound 3, (2R,3S)-3-(formylhydroxyamino)-2-(2-methyl-1-propyl)-4-methylpentanoic acid [(1S,2S)-2-methyl-1-(pyridin-2-ylcarbamoyl)-1-butyl]amide, reference compound]	–	0.045	0.03	0.013	0.03	–	0.035	0.07	–	–	–	0.01
